Measurements: article PMC4848466, “Insights into the activation mechanism of class I HDAC complexes by inositol phosphates” (Nature Communications, 2016)
Entries after “also recorded” stand apart in the source; their conditions may differ. Non-standard residues stand in square brackets, D forms with d. Residues, ends and D or L forms follow the SMILES beside them. *: point of attachment. Asu = N[C@@H](CCCCCC(=O)O)C(=O)O; NHOH = ON*

B1: MTA1 residues 162-354 (domain or fragment, UniProt Q13330 162-354, looked up)
chain: ADKGEIRVGNRYQADITDLLKEGEEDGRDQSRLETQVWEAHNPLTDKQIDQFLVVARSVGTFARALDCSSSVRQPSLHMSAAAASRDITLFHAMDTLHKNIYDISKAISALVPQGGPVLCRDEMEEWSASEANLFEEALEKYGKDFTDIQQDFLPWKSLTSIIEYYYMWKTTDRYVQQKRLKAAEAESKLKQV
notes: MTA1, residues 162-354, cloned into pcDNA3 with a FLAG tag and TEV protease cleavage site; The complex was eluted from the FLAG resin with TEV protease; source: HEK293F, co-transfected with HDAC1, purified as the complex (FLAG resin, TEV elution, gel filtration)

Key:
HDAC3:SMRT complex = target: T1, HDAC3:SMRT complex (Homo sapiens, UniProt O15379+Q9Y618); assay: Activation of HDAC3:SMRT deacetylase activity by inositol phosphates (BOC-Lys-AMC assay); type: biochemical; settings: for Kd / HDAC3 activation relative to maximal Ins(1,4,5,6)P4-stimulated activity: BOC-Lys-AMC assay; for Kd: one-site binding fit of HDAC activity vs inositol phosphate concentration, read-out: Kdapp (apparent Kd from activation titration); for HDAC3 activation relative to maximal Ins(1,4,5,6)P4-stimulated activity: titration / maximal activation; for HDAC activity as percentage of maximal Ins(1,4,5,6)P4 activity: compound tested at 200 μM
T1 construct: Full-length HDAC3, and residues 350–480 of SMRT were cloned into pcDNA3 vectors; residues 350–480 of SMRT were cloned into pcDNA3 vectors; FLAG tag with TEV protease cleavage site (cleaved yes); made in house; host or cells: HEK293F cells (co-transfection, pcDNA3)
T1 sequence (O15379 whole entry, the tested form may be a part): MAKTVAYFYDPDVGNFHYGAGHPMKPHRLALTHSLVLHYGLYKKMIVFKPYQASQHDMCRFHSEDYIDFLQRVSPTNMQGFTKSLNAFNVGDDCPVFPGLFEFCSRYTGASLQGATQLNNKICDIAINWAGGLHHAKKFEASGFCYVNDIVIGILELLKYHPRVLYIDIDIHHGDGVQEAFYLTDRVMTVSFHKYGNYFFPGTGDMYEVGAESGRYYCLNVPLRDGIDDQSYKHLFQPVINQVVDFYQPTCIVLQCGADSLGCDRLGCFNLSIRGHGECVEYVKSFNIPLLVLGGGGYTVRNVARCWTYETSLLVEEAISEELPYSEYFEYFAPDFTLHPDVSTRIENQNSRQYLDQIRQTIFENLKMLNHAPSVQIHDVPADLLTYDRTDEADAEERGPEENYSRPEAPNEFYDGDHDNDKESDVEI
T1 sequence (Q9Y618 350-480): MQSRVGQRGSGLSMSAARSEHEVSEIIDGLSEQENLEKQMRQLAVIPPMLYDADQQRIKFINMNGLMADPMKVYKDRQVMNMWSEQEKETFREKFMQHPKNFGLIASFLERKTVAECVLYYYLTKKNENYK
Description: To understand the stereochemical basis underlying the activation of HDAC3 by inositol phosphates we investigated the ability of a range of inositol phosphates and derivatives to enhance the activity of HDAC3 in deacetylase assays. To achieve this we used an assay based on the complex of HDAC3 with an extended SMRT construct which is stable in the absence of inositol phosphate.
HDAC activity of the protein complex was measured using an HDAC assay with a BOC-Lys-AMC substrate. 50 nM HDAC3:SMRT or 50 nM HDAC1:MTA1 was incubated with 100 μM BOC-Lys-AMC substrate in a final volume of 50 μl buffer A (50 mM Tris pH 7.5, 50 mM NaCl, 5% Glycerol), in a black 96-well plate for 30 min at 37 °C.
To test the ability of inositol phosphates and derivatives to activate the complex, 50 nM HDAC3:SMRT (which had been stripped of its endogenous co-purified inositol phosphate) or 50 nM HDAC1:MTA1 was incubated with inositol phosphate or analogue for 30 min at 37 °C before the HDAC activity was measured. All measurements were performed in triplicate and data analysed using GraphPad Prism (version 6.0, GraphPad Software, Inc).

HDAC1:MTA1 = target: T2, HDAC1:MTA1 (Homo sapiens, UniProt Q13330+Q13547); assay: Inhibition of HDAC1:MTA1 by peptide-based inhibitor; type: biochemical
T2 construct: Full-length HDAC1 and residues 162–354 of MTA1 were cloned into pcDNA3 vectors; residues 162–354 of MTA1 were cloned into pcDNA3 vectors; FLAG tag with TEV protease cleavage site (cleaved yes); made in house; host or cells: HEK293F cells (co-transfection, pcDNA3)
T2 sequence (Q13547 whole entry, one chain of several, the tested form may be a part): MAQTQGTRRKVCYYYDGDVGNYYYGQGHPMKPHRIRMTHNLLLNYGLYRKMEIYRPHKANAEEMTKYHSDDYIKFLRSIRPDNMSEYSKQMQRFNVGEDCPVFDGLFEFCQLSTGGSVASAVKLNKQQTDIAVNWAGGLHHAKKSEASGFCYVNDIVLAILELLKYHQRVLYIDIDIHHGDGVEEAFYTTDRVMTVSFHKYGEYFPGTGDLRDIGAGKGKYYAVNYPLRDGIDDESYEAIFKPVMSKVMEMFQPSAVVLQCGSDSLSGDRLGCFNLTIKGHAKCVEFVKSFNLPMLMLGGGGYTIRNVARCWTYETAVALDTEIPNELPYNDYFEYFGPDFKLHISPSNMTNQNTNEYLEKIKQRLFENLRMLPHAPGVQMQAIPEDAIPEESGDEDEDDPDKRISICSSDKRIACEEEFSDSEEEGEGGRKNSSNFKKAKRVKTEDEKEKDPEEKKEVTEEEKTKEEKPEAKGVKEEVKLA

HDAC3:SMRT [1] = target: T3, HDAC3:SMRT (Homo sapiens, UniProt O15379+Q9Y618); assay: Fluorescence anisotropy direct binding of 2-FAM-Ins(1,3,4,5,6)P5; settings: inhibitor bound at the active site
T3 sequence (O15379 whole entry, the tested form may be a part): as the sequence (O15379 whole entry, the tested form may be a part) above
T3 sequence (Q9Y618 350-480): as the sequence (Q9Y618 350-480) above
Description: When required, assays were performed in the presence of HDAC inhibitor (20 mM final concentration). Plates were mixed by shaking for 1 s, and measurements taken using a Victor X5 plate reader (Perkin Elmer) at room temperature with an excitation wavelength of 480 nm and an emission wavelength of 535 nm. Experiments were performed in triplicate and data were analysed using GraphPad Prism (version 6.0), Kd values were calculated by nonlinear curve fitting using a one-site binding (hyperbola) model (Y=Bmax*X/(Kd+X).
HDAC3:SMRT [2] = target: T3, HDAC3:SMRT; assay: Fluorescence anisotropy displacement of 2-FAM-Ins(1,3,4,5,6)P5; type: binding; parameters: Full-length HDAC3, and residues 350–480 of SMRT were cloned into pcDNA3 vectors; residues 350–480 of SMRT were cloned into pcDNA3 vectors; FLAG tag with TEV protease cleavage site (cleaved yes); made in house; host or cells: HEK293F cells (co-transfection, pcDNA3); settings: read-out: IC50 displacement of 2-FAM-Ins(1,3,4,5,6)P5; fluorescence anisotropy competition
Description: The concentration of protein was determined as that which gave 100% bound in the protein titration experiments. The data were analysed and IC50 values calculated using GraphPad Prism (version 6.0).

HDAC1 = target: T4, HDAC1 (UniProt Q13547 1-482); assay: crystal structure; HDAC1:MTA1 (co-expressed and co-purified, 5 mg/ml) co-crystallised with H4K16Hx at a 1:2 molar ratio; sitting drop, 20 °C, 0.1 M HEPES pH 7.5, 2 M ammonium sulfate, 5% PEG400; crystals frozen with 225 mM InsP6; 3.3 Å; settings: both partners purified
T4 construct: Histone deacetylase 1 (HDAC1), full length, cloned into pcDNA3; Only handled as the co-expressed, co-purified complex with MTA1 162-354; also called histone deacetylase 1; source: HEK293F, co-transfected with the MTA1 construct, purified as the complex (FLAG resin, TEV elution, gel filtration)
T4 sequence (Q13547 whole entry): as the sequence (Q13547 whole entry, one chain of several, the tested form may be a part) above

| Molecule | Kd (HDAC3:SMRT complex) | HDAC3 activation relative to maximal Ins(1,4,5,6)P4-stimulated activity (HDAC3:SMRT complex) | further results |
| --- | --- | --- | --- |
| O=P(O)(O)OC1[C@H](O)[C@H](OP(=O)(O)O)C(OP(=O)(O)O)[C@H](OP(=O)(O)O)[C@H]1O (some centres unmarked) [Ins(1,3,4,5)P4] | 13 µM | greater than 75% |  |
| O=P(O)(O)Oc1ccc(OP(=O)(O)O)c(OP(=O)(O)O)c1OP(=O)(O)O [benzene 1,2,3,4-tetrakisphosphate] |  |  | HDAC activity as percentage of maximal Ins(1,4,5,6)P4 activity (HDAC3:SMRT complex): fails to substantially activate the complex |
| CC(=O)N[C@@H](CCCCN)C(=O)NCC(=O)NCC(=O)N[C@@H](C)C(=O)N[C@@H](CCCCCC(=O)NO)C(=O)N[C@@H](CCCNC(=N)N)C(=O)N[C@@H](Cc1c[nH]cn1)C(N)=O [H4K16Hx] (Ac-KGGA[Asu](NHOH)RH-NH2) |  |  | IC50 (HDAC1:MTA1): 0.336 µM; enhancement of the binding of 2-FAM-Ins(1,3,4,5,6)P5 to the allosteric site by inhibitor (HDAC3:SMRT [1]): more modest effect |
| MS-275 |  |  | enhancement of the binding of 2-FAM-Ins(1,3,4,5,6)P5 to the allosteric site by inhibitor (HDAC3:SMRT [1]): threefold enhancement |
| O=P(O)(O)OC1C(O)C(O)C(O)C(OP(=O)(O)O)C1OP(=O)(O)O (centres unmarked) [Ins(4,5,6)P3] | 45 µM | 85% |  |
| O=P(O)(O)O[C@H]1[C@H](OP(=O)(O)O)[C@H](O)[C@H](O)[C@@H](O)[C@@H]1OP(=O)(O)O [Ins(1,5,6)P3] | 29 µM | 60% |  |
| O=P(O)(O)O[C@@H]1C(O)[C@H](OP(=O)(O)O)[C@@H](OP(=O)(O)O)C(O)[C@H]1OP(=O)(O)O (some centres unmarked) [Ins(1,3,4,6)P4] |  | unable to activate HDAC3; also recorded: do not activate the complex | IC50 (HDAC3:SMRT [2]): 1.5 µM |
| O=P(O)(O)O[C@@H]1[C@@H](OP(=O)(O)OP(=O)(O)O)[C@H](OP(=O)(O)O)[C@@H](OP(=O)(O)O)[C@@H](O)[C@H]1OP(=O)(O)O [5-PP-InsP4] |  |  | HDAC activity as percentage of maximal Ins(1,4,5,6)P4 activity (HDAC3:SMRT complex): ~60% |
| B1 |  |  | binding result (HDAC1): binds |
